Earlier results on 4 molecules are cited in patent US12637369B2, “Method for selectively removing perfluorinated compounds with electrooxidation” (SK hynix Inc., priority 2021, dated 2026).

Assay in series [1]: not given
The source holds these as a separate data set.

≈ marks a conversion by molar mass, not a printed value.

As usually defined, the pKa is the negative logarithm of the acid dissociation constant. As to `O=S(=O)(O)C(F)(F)C(F)(F)C(F)(F)C(F)(F)F` [PFBS, Perfluorobutane sulfonic acid], the pKa was −3.94. Also, in series [1], the Solubility in water result is reported as “Very high”.

`O=C(O)C(F)(F)C(F)(F)C(F)(F)C(F)(F)C(F)(F)C(F)(F)C(F)(F)C(F)(F)F` [PFNA, Perfluorononanoic acid]: the pKa is listed as 2-3. Besides, the Solubility in water in series [1] is 9500 µg/mL (≈ 20.5 mM).

Turning to `O=C(O)C(F)(F)C(F)(F)C(F)(F)C(F)(F)C(F)(F)C(F)(F)C(F)(F)F` [PFOA, Perfluorooctanoic acid], the Solubility in water in series [1] is 3400 µg/mL (≈ 8.21 mM).

On to `O=S(=O)(O)C(F)(F)C(F)(F)C(F)(F)C(F)(F)C(F)(F)C(F)(F)C(F)(F)C(F)(F)F` [PFOS, Perfluorooctane sulfonic acid], for which the pKa is reported as −3.27. The Solubility in water in series [1] is 570 µg/mL (≈ 1.14 mM).
